The experiment is filed under the species Rattus norvegicus. The experiment in a line: Inhibition of rat recombinant geranylgeranyltransferase type I expressed in Escherichia coli assessed as residual enzyme activity for geranylgeranylation of K-Ras4B at 50 uM incubated for 30 mins in presence of [3H]GGPP by scintillation counting assay relative to control.

Experimental findings from ChEMBL document CHEMBL4421722, “Inhibitors of protein prenyltransferases” (2013) are described below.

Turning to `CCOc1ccc([C@@H]2C[C@@H](SCC(C)C)[C@H](C(=O)O)CN2S(=O)(=O)c2ccc(C)cc2)cc1`, the Activity amounted to 83.1%.
Consider `COc1ccc([C@@H]2CC=C(C(=O)O)[C@H](c3cccc(F)c3)N2S(=O)(=O)c2ccc(C)cc2)cc1OC`, for which the Activity came to 88.9%.
For the molecule `CCCCCCS[C@@H]1C[C@@H](c2cc(OC)c(OC)c(OC)c2)N(S(=O)(=O)c2ccc(C)cc2)C[C@H]1C(=O)O`, the Activity is 93.6%.
As to `Cc1ccc(S(=O)(=O)N2[C@@H](c3cccc(F)c3)C(C(=O)O)=CC[C@H]2c2ccccc2F)cc1`, the Activity stood at 75%.
As to `Cc1ccc([C@@H]2CC=C(C(=O)O)[C@H](c3ccc(Br)cc3)N2S(=O)(=O)c2ccccc2C)cc1`, the Activity turned out to be 82%.
For the molecule `CCCS[C@@H]1C[C@@H](c2ccc(OCC)cc2)N(S(=O)(=O)c2ccc(C)cc2)C[C@H]1C(=O)O`, the Activity amounted to 84.9%.
In the case of `Cc1ccc([C@H]2C(C(=O)O)=CC[C@@H](c3ccc4c(c3)OCO4)N2S(=O)(=O)c2ccc(C)cc2)cc1`, the Activity was found to be 75.7%.
`CCCCCS[C@@H]1C[C@@H](c2cccc(Cl)c2)N(S(=O)(=O)c2ccc(C)cc2)C[C@H]1C(=O)O`: the Activity amounted to 84.6%.
Next, `CCS[C@@H]1C[C@@H](c2cccc(Br)c2)N(S(=O)(=O)c2ccc(C)cc2)C[C@H]1C(=O)O`: 82.7%; `Cc1ccc(S(=O)(=O)N2C[C@@H](C(=O)O)[C@H](SC3CCCC3)C[C@H]2c2ccccc2F)cc1`: 93.4%.
For `COc1ccc([C@@H]2CC=C(C(=O)O)[C@H](c3cccc(C)c3)N2S(=O)(=O)c2ccc(C)cc2)cc1OC`, the Activity is 76%.
`Cc1ccc(S(=O)(=O)N2[C@@H](c3ccc(F)cc3)C(C(=O)O)=CC[C@H]2c2ccc(Cl)cc2)cc1`: the Activity came to 62%.
Then `Cc1ccc(S(=O)(=O)N2[C@@H](c3ccc(C(C)(C)C)cc3)C(C(=O)O)=CC[C@H]2c2cccc(Br)c2)cc1`, with 82.8%; and `Cc1ccc(S(=O)(=O)N2C[C@@H](C(=O)O)[C@H](SCc3ccc(C(C)(C)C)cc3)C[C@H]2c2ccccc2)cc1`, with 55.9%.
Take `Cc1ccc([C@@H]2CC=C(C(=O)O)[C@H](c3ccc(Br)cc3)N2S(C)(=O)=O)cc1`: the Activity was 84.5%.
With `COc1ccc([C@@H]2C[C@@H](Sc3ccc(Cl)cc3)[C@H](C(=O)O)CN2S(=O)(=O)c2ccc(C)cc2)cc1`, the Activity was determined as 55.3%.
Next, `Cc1ccc(S(=O)(=O)N2[C@@H](c3ccc(C(C)(C)C)cc3)C(C(=O)O)=CC[C@H]2c2ccc(Cl)c(Cl)c2)cc1`: 74.3%; `COc1cc([C@@H]2C[C@@H](SCC(C)C)[C@H](C(=O)O)CN2S(=O)(=O)c2ccc(C)cc2)cc(OC)c1OC`: 98.3%; `COc1ccc([C@@H]2C[C@@H](SC3CCCC3)[C@H](C(=O)O)CN2S(=O)(=O)c2ccccc2)cc1`: 94.5%.
`CCS[C@@H]1C[C@@H](c2ccc(OC)cc2)N(S(=O)(=O)c2ccccc2)C[C@H]1C(=O)O`: the Activity was 89.9%.
For the molecule `CCCCS[C@@H]1C[C@@H](c2ccc(C)cc2)N(S(=O)(=O)c2ccccc2)C[C@H]1C(=O)O`, the Activity is 72.6%.
`Cc1ccc(S(=O)(=O)N2[C@@H](c3ccc(F)cc3)C(C(=O)O)=CC[C@H]2c2ccc(C#N)cc2)cc1`: the Activity was determined as 65.1%.
Next, `Cc1ccc([C@H]2C(C(=O)O)=CC[C@@H](c3ccccc3F)N2S(=O)(=O)c2ccc(C)cc2)cc1`: 92.9%; `Cc1ccc(S[C@@H]2C[C@@H](c3ccc(C)cc3)N(S(=O)(=O)c3ccccc3)C[C@H]2C(=O)O)cc1`: 91.3%.
For `CCS[C@@H]1C[C@@H](c2ccc3c(c2)OCO3)N(S(=O)(=O)c2ccc(C)cc2)C[C@H]1C(=O)O`, the Activity amounted to 91.5%.
As to `C=CCS[C@@H]1C[C@@H](c2cc(OC)c(OC)c(OC)c2)N(S(=O)(=O)c2ccc(C)cc2)C[C@H]1C(=O)O`, the Activity was determined as 109%.
Next, `CCCS[C@@H]1C[C@@H](c2ccc(OC)c(OC)c2)N(S(=O)(=O)c2ccc(C)cc2)C[C@H]1C(=O)O`: 91.4%; `CS(=O)(=O)N1[C@@H](c2ccc(Cl)cc2)C(C(=O)O)=CC[C@H]1c1ccccc1`: 82.1%.
As for `Cc1ccc(S[C@@H]2C[C@@H](c3ccc(C)cc3)N(S(C)(=O)=O)C[C@H]2C(=O)O)cc1`, the Activity was determined as 108%.
In the case of `Cc1ccc(S(=O)(=O)N2C[C@@H](C(=O)O)[C@H](SCc3ccc(Cl)cc3)C[C@H]2c2ccc3c(c2)OCO3)cc1`, the Activity stood at 37.4%.
Next, `CCc1ccc([C@@H]2C[C@@H](SCc3ccccc3)[C@H](C(=O)O)CN2S(=O)(=O)c2ccc(C)cc2)cc1`: 63.1%; `Cc1ccc([C@@H]2CC=C(C(=O)O)[C@H](c3cccc(F)c3)N2S(C)(=O)=O)cc1`: 75%; `CCS[C@@H]1C[C@@H](c2ccc(Cl)cc2)N(S(=O)(=O)c2ccccc2C)C[C@H]1C(=O)O`: 63.2%.
Next, `Cc1ccc([C@@H]2C[C@@H](SCCC(C)C)[C@H](C(=O)O)CN2S(=O)(=O)c2ccc(Cl)cc2)cc1`: 77.6%; `Cc1ccc([C@@H]2C[C@@H](Sc3ccccc3)[C@H](C(=O)O)CN2S(C)(=O)=O)cc1`: 99.6%.
In the case of `COc1ccc([C@@H]2CC=C(C(=O)O)[C@H](c3cccc(Cl)c3)N2S(=O)(=O)c2ccccc2C)cc1`, the Activity was determined as 66.1%.
`CS(=O)(=O)N1[C@@H](c2ccc(F)cc2)C(C(=O)O)=CC[C@H]1c1ccc(Cl)cc1`: the Activity turned out to be 50.2%.
As for `Cc1ccc(S(=O)(=O)N2[C@@H](c3ccc(Br)cc3)C(C(=O)O)=CC[C@H]2c2cccc(F)c2)cc1`, the Activity turned out to be 60.8%.
Then `CS(=O)(=O)N1[C@@H](c2cccc(Br)c2)C(C(=O)O)=CC[C@H]1c1ccc(Cl)cc1`, with 50.4%; and `Cc1ccc([C@@H]2C[C@@H](SC3CCCC3)[C@H](C(=O)O)CN2S(=O)(=O)c2ccc(Cl)cc2)cc1`, with 93.2%.
In the case of `COc1cccc([C@@H]2CC=C(C(=O)O)[C@H](c3ccc(C(C)(C)C)cc3)N2S(=O)(=O)c2ccc(C)cc2)c1`, the Activity turned out to be 95.8%.
In the case of `COc1ccc([C@@H]2CC=C(C(=O)O)[C@H](c3ccc(C(C)(C)C)cc3)N2S(=O)(=O)c2ccc(C)cc2)cc1OC`, the Activity is 90.4%.
Consider `COc1ccc([C@@H]2CC=C(C(=O)O)[C@H](c3ccc(Br)cc3)N2S(=O)(=O)c2ccc(C)cc2)cc1OC`, for which the Activity was 74%.
Consider `COc1ccc([C@@H]2C[C@@H](Sc3ccc(C)cc3)[C@H](C(=O)O)CN2S(=O)(=O)c2ccc(C)cc2)cc1`, for which the Activity worked out at 91.8%.
Then `CCc1ccc([C@@H]2C[C@@H](Sc3ccc(OC)cc3)[C@H](C(=O)O)CN2S(=O)(=O)c2ccc(C)cc2)cc1`, with 90.8%.
Then `Cc1ccc(S(=O)(=O)N2[C@@H](c3cccc(F)c3)C(C(=O)O)=CC[C@H]2c2ccc3c(c2)OCO3)cc1`, with 90.9%; and `COc1ccc([C@@H]2CC=C(C(=O)O)[C@H](c3ccc(C(C)(C)C)cc3)N2S(=O)(=O)c2ccc(C)cc2)cc1`, with 91.1%.
On to `Cc1ccc(S(=O)(=O)N2[C@@H](c3ccc(C(C)(C)C)cc3)C(C(=O)O)=CC[C@H]2c2cccc(C)c2)cc1`, for which the Activity was 56.1%.
In the case of `CCCCCCS[C@@H]1C[C@@H](c2ccccc2F)N(S(=O)(=O)c2ccc(C)cc2)C[C@H]1C(=O)O`, the Activity came out at 75.3%.
Take `COc1ccc([C@@H]2CC=C(C(=O)O)[C@H](c3ccc(Cl)cc3)N2S(=O)(=O)c2ccc(C)cc2)cc1`: the Activity came to 91.4%.
On to `Cc1ccc([C@@H]2CC=C(C(=O)O)[C@H](c3cccc(Cl)c3)N2S(=O)(=O)c2ccccc2)cc1`, for which the Activity was found to be 56.7%.
As to `CCOc1ccc([C@@H]2C[C@@H](SCc3ccc(C(C)(C)C)cc3)[C@H](C(=O)O)CN2S(=O)(=O)c2ccc(C)cc2)cc1`, the Activity amounted to 46%.
For `Cc1ccc(S(=O)(=O)N2[C@@H](c3cccc(F)c3)C(C(=O)O)=CC[C@H]2c2cccs2)cc1`, the Activity was 81.8%.
Consider `Cc1ccc([C@@H]2C[C@@H](SCc3ccccc3)[C@H](C(=O)O)CN2S(C)(=O)=O)cc1`, for which the Activity turned out to be 81.8%.
Turning to `Cc1ccc([C@H]2C(C(=O)O)=CC[C@@H](c3ccc(C)cc3)N2S(=O)(=O)c2ccccc2C)cc1`, the Activity worked out at 88.3%.
As to `CCCCCCS[C@@H]1C[C@@H](c2ccc(OC)cc2)N(S(=O)(=O)c2ccc(Cl)cc2)C[C@H]1C(=O)O`, the Activity stood at 68.3%.
Regarding `CCCCS[C@@H]1C[C@@H](c2cccc(OC)c2)N(S(=O)(=O)c2ccc(C)cc2)C[C@H]1C(=O)O`, the Activity came out at 83.9%.
Next, `COc1ccc([C@@H]2C[C@@H](SCc3ccccc3)[C@H](C(=O)O)CN2S(=O)(=O)c2ccc(C)cc2)cc1OC`: 54.5%; `COc1cccc([C@@H]2CC=C(C(=O)O)[C@H](c3cccc(Cl)c3)N2S(=O)(=O)c2ccc(C)cc2)c1`: 67.1%; `Cc1ccc(S(=O)(=O)N2[C@@H](c3cccc(C)c3)C(C(=O)O)=CC[C@H]2c2ccc3c(c2)OCO3)cc1`: 70.6%.
Next, `Cc1ccc([C@@H]2CC=C(C(=O)O)[C@H](c3ccc(C(C)(C)C)cc3)N2S(=O)(=O)c2ccc(Cl)cc2)cc1`: 74.4%; `COc1cccc([C@@H]2C[C@@H](SCc3ccccc3)[C@H](C(=O)O)CN2S(=O)(=O)c2ccc(C)cc2)c1`: 35%; `Cc1ccc(S(=O)(=O)N2[C@@H](c3ccc(F)cc3)C(C(=O)O)=CC[C@H]2c2cccc(Br)c2)cc1`: 62.7%.
For the molecule `CCCS[C@@H]1C[C@@H](c2ccc(C)cc2)N(S(=O)(=O)c2ccc(Cl)cc2)C[C@H]1C(=O)O`, the Activity was determined as 83.2%.
`CCCS[C@@H]1C[C@@H](c2ccccc2)N(S(=O)(=O)c2ccc(C)cc2)C[C@H]1C(=O)O`: the Activity is 75.7%.
As to `Cc1ccc(S(=O)(=O)N2[C@@H](c3ccc(Br)cc3)C(C(=O)O)=CC[C@H]2c2ccc3c(c2)OCO3)cc1`, the Activity is 74.4%.
Next, `Cc1ccc(S(=O)(=O)N2C[C@@H](C(=O)O)[C@H](SCc3ccc(C(C)(C)C)cc3)C[C@H]2c2ccccc2F)cc1`: 71.9%.
As to `COc1ccc(S[C@@H]2C[C@@H](c3ccc(OC)c(OC)c3)N(S(=O)(=O)c3ccc(C)cc3)C[C@H]2C(=O)O)cc1`, the Activity turned out to be 101%.
In the case of `COc1ccc([C@@H]2C[C@@H](Sc3ccccc3)[C@H](C(=O)O)CN2S(=O)(=O)c2ccccc2C)cc1`, the Activity is 84.8%.
